What all share (test): In vitro competitive activity-based protein profiling (Table 2, % inhibition at 1 μM)
What all share (assay type): biochemical

Test [1] addresses T1, FAAH (Mus musculus, UniProt O08914).
T1 sequence (O08914 1-579): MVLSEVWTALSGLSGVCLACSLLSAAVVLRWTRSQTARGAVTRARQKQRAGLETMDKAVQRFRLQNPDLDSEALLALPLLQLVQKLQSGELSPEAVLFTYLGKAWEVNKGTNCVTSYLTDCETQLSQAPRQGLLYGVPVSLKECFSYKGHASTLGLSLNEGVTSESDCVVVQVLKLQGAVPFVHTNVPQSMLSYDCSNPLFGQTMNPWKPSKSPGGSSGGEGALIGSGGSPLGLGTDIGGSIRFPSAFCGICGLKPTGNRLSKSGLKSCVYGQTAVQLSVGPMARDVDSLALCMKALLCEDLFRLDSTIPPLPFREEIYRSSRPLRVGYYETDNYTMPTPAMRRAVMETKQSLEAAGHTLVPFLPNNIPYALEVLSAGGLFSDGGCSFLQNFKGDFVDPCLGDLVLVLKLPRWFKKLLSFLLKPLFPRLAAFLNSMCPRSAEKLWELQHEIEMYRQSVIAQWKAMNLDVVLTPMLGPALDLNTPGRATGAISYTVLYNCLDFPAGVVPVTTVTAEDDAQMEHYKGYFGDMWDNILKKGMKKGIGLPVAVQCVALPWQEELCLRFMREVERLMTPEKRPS
Conditions: read-out: % Inhibition at 1 μM FAAH. Here is the method:
(§1) After 30 min, FP—Rh (1.0 μL, 50 μM in DMSO) was added and the mixture was incubated for another 30 min at 37° C. Reactions were quenched with SDS loading buffer (50 μL-4×) and run on SDS-PAGE. Following gel imaging, serine hydrolase activity was determined by measuring fluorescent intensity of gel bands corresponding to MAGL, ABHD6 and FAAH using ImageJ 1.43 u software.
(§2) hMAGL was expressed in HEK293T cells according to previously reported methods (see Niphakis, Long, and Blankman, J. L., et al. (2007) Chem. Biol. 14:1347-1356). Cell lysates were diluted with mock proteomes for use in competitive ABPP experiments.

The target of test [2] is T2, ABHD6 (Mus musculus, UniProt Q8R2Y0).
T2 sequence (Q8R2Y0 1-336): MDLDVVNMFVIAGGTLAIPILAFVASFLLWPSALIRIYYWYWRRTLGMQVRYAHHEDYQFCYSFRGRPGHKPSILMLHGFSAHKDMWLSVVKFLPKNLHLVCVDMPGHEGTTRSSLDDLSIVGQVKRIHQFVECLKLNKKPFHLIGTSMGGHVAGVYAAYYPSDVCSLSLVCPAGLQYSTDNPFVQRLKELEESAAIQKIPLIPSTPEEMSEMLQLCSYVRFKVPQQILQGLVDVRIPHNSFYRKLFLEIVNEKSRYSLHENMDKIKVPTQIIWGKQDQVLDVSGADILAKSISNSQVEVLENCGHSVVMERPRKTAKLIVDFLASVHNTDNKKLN
Conditions: read-out: % Inhibition at 1 μM ABHD6. Here is the method: as §1, §2

Test [3] addresses T3, MAGL (Mus musculus, UniProt O35678).
T3 sequence (O35678 1-303): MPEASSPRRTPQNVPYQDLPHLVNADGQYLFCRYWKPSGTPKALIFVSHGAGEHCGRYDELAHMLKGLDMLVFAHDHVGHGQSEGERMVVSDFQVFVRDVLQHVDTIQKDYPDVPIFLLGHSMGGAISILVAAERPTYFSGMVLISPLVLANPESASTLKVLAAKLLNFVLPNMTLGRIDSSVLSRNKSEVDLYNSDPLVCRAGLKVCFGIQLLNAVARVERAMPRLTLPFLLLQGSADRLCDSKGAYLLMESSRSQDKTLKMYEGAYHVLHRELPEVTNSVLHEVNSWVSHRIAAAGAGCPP
The note with it: read-out: % Inhibition at 1 μM MAGL. As to the method: After 30 min, FP—Rh (1.0 μL, 50 μM in DMSO) was added and the mixture was incubated for another 30 min at 37° C. Reactions were quenched with SDS loading buffer (50 μL-4×) and run on SDS-PAGE.
Cell lysates were diluted with mock proteomes for use in competitive ABPP experiments.

Consider `O=C(ON1C(=O)CCC1=O)N1CC2CN(Cc3ccc(Cl)cc3N3CCCC3)CC2C1` (stereo not drawn) [Example 94, 2,5-Dioxopyrrolidin-1-yl 5-[[4-chloro-2-(pyrrolidin-1-yl)phenyl]methyl]-octahydropyrrolo[3,4-c]pyrrole-2-carboxylate], for which the inhibition at 1 µM in test [1] is 25 to 75%; in test [2] it was less than 25%; in test [3], 25 to 75%.

For `O=C(ON1C(=O)CCC1=O)N1CC2CN(Cc3ccc(F)cc3N3CCCC3)CC2C1` (stereo not drawn) [Example 90, 2,5-Dioxopyrrolidin-1-yl 5-[[4-fluoro-2-(pyrrolidin-1-yl)phenyl]methyl]-octahydropyrrolo[3,4-c]pyrrole-2-carboxylate], the inhibition at 1 µM in test [1] is 25 to 75%; in test [2], less than 25%; in test [3] it was 25 to 75%.

In the case of `O=C(ON1C(=O)CCC1=O)N1CC2CN(Cc3ccc(C(=O)N4CCC4)cc3Cl)CC2C1` (stereo not drawn) [Example 165, 2,5-dioxopyrrolidin-1-yl5-(4-(azetidine-1-carbonyl)-2-chlorobenzyl)-hexahydropyrrolo[3,4-c]pyrrole-2(1H)-carboxylate], the inhibition at 1 µM in test [1] is less than 25%; in test [2] it was less than 25%; in test [3], 25 to 75%.

On to `CC(=O)N1CCN(c2cc(F)ccc2CN2CC3CN(C(=O)ON4C(=O)CCC4=O)CC3C2)CC1` (stereo not drawn) [Example 92, 2,5-Dioxopyrrolidin-1-yl 5-[[2-(4-acetylpiperazin-1-yl)-4-fluorophenyl]methyl]-octahydropyrrolo[3,4-c]pyrrole-2-carboxylate], for which the inhibition at 1 µM in test [1], in test [2] and in test [3] was less than 25% throughout.

`O=C(OC(C(F)(F)F)C(F)(F)F)N1CC2CN(Cc3ccc(Cl)cc3N3CCOCC3)CC2C1` (stereo not drawn) [Example 18, 1,1,1,3,3,3-Hexafluoropropan-2-yl 5-[[4-chloro-2-(morpholin-4-yl)phenyl]methyl]-octahydropyrrolo[3,4-c]pyrrole-2-carboxylate]: the inhibition at 1 µM in test [1] was 25 to 75%; in test [2], 25 to 75%; in test [3] it was more than 75%.

In the case of `CC1COCCN1c1cc(F)ccc1CN1CC2CN(C(=O)ON3C(=O)CCC3=O)CC2C1` (stereo not drawn) [Example 91, 2,5-Dioxopyrrolidin-1-yl 5-[[4-fluoro-2-(3-methylmorpholin-4-yl)phenyl]methyl]-octahydropyrrolo[3,4-c]pyrrole-2-carboxylate], the inhibition at 1 µM in test [1], in test [2] and in test [3] was less than 25% in each case.

`Cn1cc(CN2CC3CN(C(=O)ON4C(=O)CCC4=O)CC3C2)c(-c2ccccc2Cl)n1` (stereo not drawn) [Example 115, 2,5-Dioxopyrrolidin-1-yl 5-[[3-(2-chlorophenyl)-1-methyl-1H-pyrazol-4-yl]methyl]-octahydropyrrolo[3,4-c]pyrrole-2-carboxylate]: the values for the inhibition at 1 µM in test [1], in test [2] and in test [3] were less than 25%, less than 25% and 25 to 75%, respectively.

For the compound `CCn1cc(CN2CC3CN(C(=O)OC(C(F)(F)F)C(F)(F)F)CC3C2)c(C(=O)N2CCOCC2)n1` (stereo not drawn) [Example 76, 1,1,1,3,3,3-Hexafluoropropan-2-yl 5-((1-ethyl-3-(morpholine-4-carbonyl)-1H-pyrazol-4-yl)methyl)hexahydropyrrolo[3,4-c]pyrrole-2(1H)-carboxylate], the values for the inhibition at 1 µM in test [1], in test [2] and in test [3] were less than 25%, less than 25% and 25 to 75%, respectively.

Regarding `CC(C)n1cc(CN2CC3CN(C(=O)ON4C(=O)CCC4=O)CC3C2)c(C2CCN(S(C)(=O)=O)CC2)n1` (stereo not drawn) [Example 120, 2,5-Dioxopyrrolidin-1-yl 5-[[3-(1-methanesulfonylpiperidin-4-yl)-1-(propan-2-yl)-1H-pyrazol-4-yl]methyl]-octahydropyrrolo[3,4-c]pyrrole-2-carboxylate], the inhibition at 1 µM in test [1], in test [2] and in test [3] was less than 25% throughout.

For `O=C(ON1C(=O)CCC1=O)N1CC2CN(Cc3ccc(Cl)cc3N3Cc4cccnc4C3)CC2C1` (stereo not drawn) [Example 107, 2,5-Dioxopyrrolidin-1-yl 5-[(4-chloro-2-[5H,6H,7H-pyrrolo[3,4-b]pyridin-6-yl]phenyl)methyl]-octahydropyrrolo[3,4-c]pyrrole-2-carboxylate], the inhibition at 1 µM in test [1], in test [2] and in test [3] was 25 to 75% in each case.

In the case of `O=C(OC(C(F)(F)F)C(F)(F)F)N1CC2CN(C(c3ccc(Cl)cc3)c3ccc(Cl)cc3)CC2C1` (stereo not drawn) [Example 8, 1,1,1,3,3,3-Hexafluoropropan-2-yl 5-[bis(4-chlorophenyl)methyl]-octahydropyrrolo[3,4-c]pyrrole-2-carboxylate], the values for the inhibition at 1 µM in test [1], in test [2] and in test [3] were less than 25%, 25 to 75% and 25 to 75%, respectively.

As for `CCn1cc(CN2CC3CN(C(=O)OC(C(F)(F)F)C(F)(F)F)CC3C2)c(-c2ccccn2)n1` (stereo not drawn) [Example 70, 1,1,1,3,3,3-Hexafluoropropan-2-yl 5-[[1-ethyl-3-(pyridin-2-yl)-1H-pyrazol-4-yl]methyl]-octahydropyrrolo[3,4-c]pyrrole-2-carboxylate], the inhibition at 1 µM in test [1] is less than 25%; in test [2] it was less than 25%; in test [3], 25 to 75%.

On to `O=C(OC(C(F)(F)F)C(F)(F)F)N1CC2CN(Cc3ccc(C(=O)N4CCOCC4)c(OC(F)(F)F)c3)CC2C1` (stereo not drawn) [Example 191, 1,1,1,3,3,3-hexafluoropropan-2-yl 5-(4-(morpholine-4-carbonyl)-3-(trifluoromethoxy)benzyl)hexahydropyrrolo[3,4-c]pyrrole-2(1H)-carboxylate], for which the inhibition at 1 µM in test [1], in test [2] and in test [3] was less than 25% in each case.

Turning to `O=C(ON1C(=O)CCC1=O)N1CC2CN(Cc3ccc(Cl)cc3N3CCC3)CC2C1` (stereo not drawn) [Example 113, 2,5-Dioxopyrrolidin-1-yl 5-[[2-(azetidin-1-yl)-4-chlorophenyl]methyl]-octahydropyrrolo[3,4-c]pyrrole-2-carboxylate], the inhibition at 1 µM in test [1] is less than 25%; in test [2], 25 to 75%; in test [3] it was more than 75%.

As to `CC(=O)N1CCC(c2nn(C)cc2CN2CC3CN(C(=O)OC(C(F)(F)F)C(F)(F)F)CC3C2)CC1` (stereo not drawn) [Example 52, 1,1,1,3,3,3-Hexafluoropropan-2-yl 5-[[3-(1-acetylpiperidin-4-yl)-1-methyl-1H-pyrazol-4-yl]methyl]-octahydropyrrolo[3,4-c]pyrrole-2-carboxylate], the inhibition at 1 µM in test [1] was less than 25%; in test [2], less than 25%; in test [3], 25 to 75%.

As for `Cn1nc(-c2cccc(F)c2)cc1CN1CC2CN(C(=O)ON3C(=O)CCC3=O)CC2C1` (stereo not drawn) [Example 198, 2,5-dioxopyrrolidin-1-yl 5-((3-(3-fluorophenyl)-1-methyl-1H-pyrazol-5-yl)methyl)hexahydropyrrolo[3,4-c]pyrrole-2(1H)-carboxylate], the inhibition at 1 µM in test [1], in test [2] and in test [3] was less than 25% each time.

With `CC1COCCN1c1cc(Cl)ccc1CN1CC2CN(C(=O)ON3C(=O)CCC3=O)CC2C1` (stereo not drawn) [Example 95, 2,5-Dioxopyrrolidin-1-yl 5-[[4-chloro-2-(3-methylmorpholin-4-yl)phenyl]methyl]-octahydropyrrolo[3,4-c]pyrrole-2-carboxylate], the figures for the inhibition at 1 µM in test [1], in test [2] and in test [3] were less than 25%, less than 25% and 25 to 75%, respectively.

The inhibition is the drop in the measured response relative to a control, in per cent.

The values are drawn from patent US9828379B2 (priority 2013, dated 2017).
